The structures appear in SMILES notation.

A short description of one data set: water solubility. The format is physicochemical.
Data set [1] can be described thus: solubility of the free base in solvents. The conditions noted are these: free base form. Format: physicochemical. As for the experimental part:
For example, acetone is needed to dissolve the free base at 50° C. […] HCl, phosphoric acid, tartaric acid, acetic acid, D-glucoronic acid and succinic acid were used to prepare pharmaceutically acceptable salts of compound 3. One crystalline form of compound 3 as a mono-succinate salt and five crystalline polymorphs of compound 3 as a hemi-succinate salt are provided in the Examples.

On to `COc1ccc(-c2ccnc(Nc3ccc(S(=O)(=O)NCCCN(C)C)cc3)n2)cc1F` [Compound 3, N-(3-(dimethylamino)propyl)-4-(4-(3-fluoro-4-methoxyphenyl)pyrimidin-2-ylamino)benzenesulfonamide], for which the Solubility in water result in “water solubility” (free base, thermogravimeteric method) was “not detectable”. In data set [1], the “solubility in THF, DMSO and DMF” value is given as “high”; the “solubility in group 3 solvents, including water” value was “low”.
Take `COc1ccc(-c2ccnc(Nc3ccc(S(=O)(=O)NCCCN(C)C)cc3)n2)cc1F.O=C(O)CCC(=O)O` [Example 1, Mono-Succinate Salt of N-(3-(dimethylamino)propyl)-4-(4-(3-fluoro-4-methoxyphenyl)pyrimidin-2-ylamino)benzenesulfonamide]: the “water solubility (stated in words)” value in the data set “water solubility” is “water soluble”.

The values above are taken from patent US20080262008A1, “CRYSTALLINE FORMS AND POLYMORPHS OF N-(3-(DIMETHYLAMINO)PROPYL)-4-(4-(3-FLUORO-4-METHOXYPHENYL) PYRIMIDIN-2-YLAMINO) BENZENESULFONAMIDE AS SUCCINATE SALTS” (Wyeth, priority 2007, published 2008).
